For series [1] the following is noted: in vivo; cited from earlier work.
For series [2], the system named is aptamer 9.3t. In words: Isothermal titration calorimetry, two-sites binding model (Table 5). The following applies: for K1: first stage binding; for affinity for aptamer 9.3t (in words): two-site model. (ITC needs no label: the signal is the heat of the interaction.)
For series [3], the system named is aptamer 9.3t. The series can be described thus: APTT clotting assay: antidote reversal of factor IXa aptamer in human plasma. The following applies: for reversal of factor IXa aptamer (9.3t / Ch-9.3t) anticoagulant activity: antidote 2.5 μg (per 160 μl), human plasma.
A further series deals with Aptamer Ch-9.3t. The series can be described thus: Isothermal titration calorimetry (Example V, Table 3). Format: binding. The following applies: ITC, 298K, PBS.
Another series relates to human plasma. In words: APTT clotting time with antidote alone (no aptamer). It counts as biochemical.
For series [4] the following is noted: in vivo; cited from earlier work. This is another data set of the same source.
Another series deals with aptamers 9.3t and 11F7T. In words: APTT clotting assay: reversal of both aptamers simultaneously. The following applies: protamine 2.5 μg per 160 μl. It counts as biochemical, human. The procedure:
All reactions were performed in triplicate.

The test system of series [5] is Factor IXa aptamer (Ch-9.3t). The series can be described thus: Swine systemic anticoagulation, ACT: antidote reversal. It counts as in vivo. The following applies: protamine 10 mg/kg; for reversal of aptamer anticoagulation (ACT): 30 minutes post aptamer.
The conditions of series [6]: in vivo; cited from earlier work. This is another data set of the same source.
Another series concerns aptamer 11F7T. In words: APTT clotting assay: antidote reversal of factor Xa aptamer in human plasma. The following applies: for reversal of factor Xa aptamer (11F7T) anticoagulant activity: antidote 2.5 μg (per 160 μl), human plasma.
The target of a further series is human factor IXa (Homo sapiens, UniProt P00740). The series can be described thus: APTT clotting assay: anticoagulant activity of factor IXa aptamer. The following applies: FIG. 5B.
Chain of human factor IXa (P00740 227-461 limits assumed): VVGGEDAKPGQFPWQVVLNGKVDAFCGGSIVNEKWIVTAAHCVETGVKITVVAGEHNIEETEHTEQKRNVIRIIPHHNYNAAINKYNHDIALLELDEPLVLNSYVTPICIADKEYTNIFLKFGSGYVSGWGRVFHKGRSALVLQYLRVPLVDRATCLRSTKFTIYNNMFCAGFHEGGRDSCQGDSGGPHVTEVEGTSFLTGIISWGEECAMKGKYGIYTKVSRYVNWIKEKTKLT
Chain of human factor IXa (P00740 47-191 limits assumed): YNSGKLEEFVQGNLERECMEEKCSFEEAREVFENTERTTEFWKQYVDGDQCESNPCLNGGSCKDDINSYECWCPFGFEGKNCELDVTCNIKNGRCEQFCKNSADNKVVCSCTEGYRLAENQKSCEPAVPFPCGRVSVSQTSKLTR
The next series has as its target T1, VWF (Homo sapiens, UniProt P04275).
T1 construct: from tissue; host or cells: normal human whole blood
In words: PFA-100 platelet function assay: antiplatelet activity of VWF aptamers. Format: cell-based. The following applies: whole blood. Here is the method: The Platelet Function Analyzer, PFA-100 (Dade Behring, Deerfield, Ill.), measures platelet function in terms of clot formation time. In this assay, collagen/ADP cartridges were used to activate the platelets. 800 μl of whole blood was mixed with aptamer in platelet binding buffer (40 μl) (150 mM NaCl; 20 mM Hepes pH:7.4; 5 mM KCl; 1 mM MgCl2 and 1 mM CaCl2) and incubated for 5 min at room temperature. Antidote molecule or platelet buffer (40 μl) was than added and incubated for 5 min at room temperature. This mixture was then added to a collagen/ADP cartridge and tested for its closing time (Harrison, Blood Rev. 19:111 (2005)). The maximum closing time of the PFA-100 is 300 seconds. Data is shown as the change in closing time. All reactions were performed in triplicate.

Where [7] appears, read: 9.3t-Bi 150 nM + antidote 2.5 ug/well.
[8] abbreviates: protamine 2.5 μg, aptamer 150 nM.

Entries after “also recorded” stand apart in the source; their conditions may differ. Positions of bridges follow the written chain, without caps; N, C: chain ends. Non-standard residues stand in square brackets, D forms with d. Residues, ends and D or L forms follow the SMILES beside them. [invdT] = inverted (3'-3') thymidine; hArg = N=C(N)NCCCC[C@H](N)C(=O)O; Mpa = O=C(O)CCS

T1 sequence (P04275 23-2813): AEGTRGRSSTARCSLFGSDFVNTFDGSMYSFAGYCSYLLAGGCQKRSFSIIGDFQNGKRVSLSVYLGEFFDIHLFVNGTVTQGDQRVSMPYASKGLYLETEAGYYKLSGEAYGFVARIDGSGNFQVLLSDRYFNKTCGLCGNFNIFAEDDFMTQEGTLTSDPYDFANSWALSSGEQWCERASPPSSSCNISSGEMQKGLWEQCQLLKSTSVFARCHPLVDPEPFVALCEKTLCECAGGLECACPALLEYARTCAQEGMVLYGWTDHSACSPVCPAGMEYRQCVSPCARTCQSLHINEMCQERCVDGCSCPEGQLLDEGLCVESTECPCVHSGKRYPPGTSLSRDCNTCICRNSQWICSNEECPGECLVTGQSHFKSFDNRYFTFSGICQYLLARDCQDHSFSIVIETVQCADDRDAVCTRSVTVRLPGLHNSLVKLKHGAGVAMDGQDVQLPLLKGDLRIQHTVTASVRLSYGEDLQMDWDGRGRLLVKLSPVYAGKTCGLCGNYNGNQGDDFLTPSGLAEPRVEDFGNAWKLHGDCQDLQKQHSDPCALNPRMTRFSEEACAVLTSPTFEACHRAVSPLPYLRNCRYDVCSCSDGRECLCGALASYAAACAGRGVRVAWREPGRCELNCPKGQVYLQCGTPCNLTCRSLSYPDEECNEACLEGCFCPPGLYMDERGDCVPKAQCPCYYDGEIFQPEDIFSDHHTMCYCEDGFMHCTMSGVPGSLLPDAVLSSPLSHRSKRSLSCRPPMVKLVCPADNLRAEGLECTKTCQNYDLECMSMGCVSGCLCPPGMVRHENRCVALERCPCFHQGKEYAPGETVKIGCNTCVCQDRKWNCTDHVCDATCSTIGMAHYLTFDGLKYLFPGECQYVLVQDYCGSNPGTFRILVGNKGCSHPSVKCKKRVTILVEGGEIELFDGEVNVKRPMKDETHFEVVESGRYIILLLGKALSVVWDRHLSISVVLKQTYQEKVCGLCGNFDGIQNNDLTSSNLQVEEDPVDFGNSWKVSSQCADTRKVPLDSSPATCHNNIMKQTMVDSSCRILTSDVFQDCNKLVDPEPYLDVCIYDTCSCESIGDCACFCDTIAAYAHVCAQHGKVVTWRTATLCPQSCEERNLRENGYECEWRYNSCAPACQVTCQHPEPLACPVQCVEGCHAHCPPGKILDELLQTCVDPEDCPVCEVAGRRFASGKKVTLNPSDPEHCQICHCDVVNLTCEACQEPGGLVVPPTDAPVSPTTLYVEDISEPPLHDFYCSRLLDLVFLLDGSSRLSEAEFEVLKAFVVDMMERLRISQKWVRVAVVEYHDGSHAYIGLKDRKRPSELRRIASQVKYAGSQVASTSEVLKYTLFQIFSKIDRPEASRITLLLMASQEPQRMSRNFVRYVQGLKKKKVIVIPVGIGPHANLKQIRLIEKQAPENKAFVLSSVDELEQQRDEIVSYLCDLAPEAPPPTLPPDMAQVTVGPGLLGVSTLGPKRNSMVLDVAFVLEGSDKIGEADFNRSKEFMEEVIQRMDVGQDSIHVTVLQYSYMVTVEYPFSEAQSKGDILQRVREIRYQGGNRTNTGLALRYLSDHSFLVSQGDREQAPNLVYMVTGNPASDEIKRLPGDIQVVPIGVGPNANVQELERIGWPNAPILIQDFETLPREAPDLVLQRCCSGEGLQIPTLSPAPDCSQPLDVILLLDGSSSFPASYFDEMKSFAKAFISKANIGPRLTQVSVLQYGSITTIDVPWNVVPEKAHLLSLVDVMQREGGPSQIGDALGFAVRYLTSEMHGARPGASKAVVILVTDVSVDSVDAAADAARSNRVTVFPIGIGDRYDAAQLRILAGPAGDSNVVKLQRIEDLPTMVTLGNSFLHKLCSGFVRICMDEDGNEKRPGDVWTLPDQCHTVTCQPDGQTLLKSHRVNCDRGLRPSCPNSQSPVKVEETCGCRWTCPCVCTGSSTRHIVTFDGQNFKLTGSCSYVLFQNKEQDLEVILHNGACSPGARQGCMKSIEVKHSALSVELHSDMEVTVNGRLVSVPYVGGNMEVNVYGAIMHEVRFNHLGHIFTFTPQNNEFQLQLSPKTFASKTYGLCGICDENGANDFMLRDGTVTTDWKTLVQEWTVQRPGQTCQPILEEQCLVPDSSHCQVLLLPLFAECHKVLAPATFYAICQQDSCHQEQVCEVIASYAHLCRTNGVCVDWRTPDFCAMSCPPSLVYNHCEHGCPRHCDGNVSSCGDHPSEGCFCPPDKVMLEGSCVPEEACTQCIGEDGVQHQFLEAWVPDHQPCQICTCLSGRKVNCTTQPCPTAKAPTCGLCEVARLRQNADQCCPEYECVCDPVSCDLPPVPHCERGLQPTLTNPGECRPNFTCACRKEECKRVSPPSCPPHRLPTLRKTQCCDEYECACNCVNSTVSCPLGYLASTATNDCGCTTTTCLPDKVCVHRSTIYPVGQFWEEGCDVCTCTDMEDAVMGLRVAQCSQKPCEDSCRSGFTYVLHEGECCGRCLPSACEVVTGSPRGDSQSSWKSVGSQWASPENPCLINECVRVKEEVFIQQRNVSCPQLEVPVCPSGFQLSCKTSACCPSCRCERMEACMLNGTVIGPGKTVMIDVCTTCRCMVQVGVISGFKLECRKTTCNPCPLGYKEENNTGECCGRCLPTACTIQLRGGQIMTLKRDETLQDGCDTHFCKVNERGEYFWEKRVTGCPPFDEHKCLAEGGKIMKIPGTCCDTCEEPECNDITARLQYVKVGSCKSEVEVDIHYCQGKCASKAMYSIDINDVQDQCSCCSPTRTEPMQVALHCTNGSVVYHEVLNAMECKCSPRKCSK

As to `N=C(N)NCCCC[C@@H]1NC(=O)CCSSC[C@@H](C(N)=O)NC(=O)[C@@H]2CCCN2C(=O)[C@H](Cc2c[nH]c3ccccc23)NC(=O)[C@H](CC(=O)O)NC(=O)CNC1=O` [eptifibatide] ([Mpa][hArg]GDWPC-NH2; disulfide 1-7), the “time for clearance of the compound” value in series [1] is 2 to 4 h.

`NCCCNCCCCNCCCN` [Spermine]: in the series with aptamer 9.3t [2], the K1 was determined as 1.63e+06 M⁻¹ and the “affinity for aptamer 9.3t (in words)” value is reported as “orders of magnitude lower”. In the series on aptamer 9.3t [2] (second stage binding), this molecule had a K2 of 126000 M⁻¹. In addition, the APTT clotting time with aptamer 9.3t [3] (9.3t-Bi 150 nM + antidote 1.3 ug/well) turned out to be 72.7 s. Further, the “Comments: reversal over antidote range” value in the series with aptamer 9.3t [3] (9.3t-Bi 150 nM, antidote 1.3 ug/well-10 ug/well) was “Did not work b/w 1.3 ug/well-10 ug/well”. For the same molecule, in the series on Aptamer Ch-9.3t, the Binding constant stood at 8800 M⁻¹ and the “affinity with aptamer 9.3t (in words)” value is on record as “No significant binding”. The molecule also had an APTT clotting time in the series on human plasma (antidote 1.3 ug/well) of 63.8 s.

Turning to “β-cyclodextrin-containing polycation (imidazole-containing variant) [CDP-Im]”, the safety profile entry in series [4] was “favorable safety profile”.

Turning to Protamine, the K1 in the series on aptamer 9.3t [2] is 3.09e+07 M⁻¹. For the same molecule, the “affinity for aptamer 9.3t (in words)” value with aptamer 9.3t [2] is “significant and similar affinities”. In addition, in the series on aptamers 9.3t and 11F7T, the “duration of simultaneous reversal” value is on record as “maintained for at least an hour”. Also, the “reversal of both aptamers' activity simultaneously” value with aptamers 9.3t and 11F7T is “reverses”; with aptamers 9.3t and 11F7T (listed as protamine) it was “reverse the anticoagulant activity of the two aptamers simultaneously”. Also, the “protamine concentration for total reversal relative to that routinely used to reverse heparin's anticoagulant activity” value with aptamer 9.3t [3] (2.5 μg protamine, both aptamers 9.3t and 11F7T, lower) was 2 fold. The APTT clotting time in the series with aptamer 9.3t [3] (setting [7]) stood at 30.3 s; with human plasma (antidote 2.5 ug/well) it was 24 s. In the series on aptamer 9.3t [3] (setting [7]), the Reversal entry was “Yes”. For the same molecule, the “reversal of factor IXa aptamer (9.3t / Ch-9.3t) anticoagulant activity” value is reported as “reverses” with aptamer 9.3t [3] (aptamer 150 nM) and “returned the clotting time to normal; also recorded: totally reverse” in the series on aptamer 9.3t [3] (aptamer 150 nM, listed as protamine). The “duration of reversal in vitro (APTT)” value in the series with aptamer 9.3t [3] (protamine) and in the series with aptamer 11F7T (protamine) was “at least 60 minutes” each time. In addition, the results for the duration of reversal result (in the series with aptamer 9.3t [3] (setting [8]); in series [5] (Example IV)) were “maintained for at least an hour” and “at least one hour”, respectively. In addition, the “time after protamine addition to return of clotting time to normal” value with aptamer 9.3t [3] (setting [8]) was at most 5 min. Moreover, the “time to return of ACT to baseline / reversal” value in series [5] is reported as “within five minutes”. In addition, the “reversal of aptamer anticoagulation (ACT)” value in series [5] is “reverses”; in series [5] (listed as protamine) it was “total reversal; also recorded: complete reversal”. For the same molecule, the “duration of reversal (remainder of the experiment)” value in series [5] (Example VI) was determined as 60 min. The “side effects of administration” value in [6] is “associated with several side effects”. Further, the “reversal of factor Xa aptamer (11F7T) anticoagulant activity” value in the series on aptamer 11F7T (aptamer 250 nM) is “reverses”; with aptamer 11F7T (aptamer 250 nM, listed as protamine), “totally reverse”. Moreover, the “time after protamine administration to total reversal” value in the series on aptamer 11F7T (protamine 2.5 μg, aptamer 250 nM) is at most 5 min.

In the case of “9.3t: factor IXa aptamer, 37 nt 2′fluoropyrimidine modified ssRNA, no carrier (SEQ ID NO: 1) (AUGGGGACUAUACCGCGUAAUGCUGCCUCCCCAUU; 2'-fluoro at CU, RNA at AG, 3' [invdT], backbone not given here)”, the “anticoagulant activity (in words)” value with human factor IXa is on record as “potent anticoagulant”.

With `NCCCCNCCCN` [spermidine, Spermidine], in the series on Aptamer Ch-9.3t, the “affinity with aptamer 9.3t (in words)” value was “No significant binding”.

B1: VWF aptamer 9.3: Von Willebrand factor aptamer (SEQ ID NO: 5) (nucleic acid)
chain: GGGAGGACGAUGCGGAUCGCGCUCUCCUGCUUAAGCAGCUAUCAAAUAGCCCACUCAGACGACUCGCUGAGGAUCCGAGA
modifications: listed as RNA, chemistry not given here
Take B1: the “inhibition of platelet function” value with VWF is “can inhibit platelet function”.

B2: VWF aptamer 9.14: Von Willebrand factor aptamer (SEQ ID NO: 3) (nucleic acid)
chain: GGGAGGACGAUGCGGUGGACGAACUGCCCUCAGCUACUUUCAUGUUGCUGACGCACAGACGACUCGCUGAGGAUCCGAGA
modifications: listed as RNA, chemistry not given here
Take B2: the “inhibition of platelet function” value with VWF is recorded as “can inhibit platelet function”.

(Values after patent US9901553B2, “Method of modulating the activity of a nucleic acid molecule” (DUKE UNIVERSITY, priority 2007, dated 2018).)
